Measurements from patent publication US4835160A, “Derivatives of pyridoindole, having anti-tumor properties” (Sanofi, priority 1986, dated 1989).

Legend:
colic adenocarcinoma 38 [1] = assay: Test for colic adenocarcinoma 38, SC/D1 IV; format: in vivo, BDF1 hybrid mice; conditions: 100 mg/kg IV
Procedure: (§1) The antitumour activity was tested in vivo on various tumours inoculated in various ways according to the following general protocol:
(§2) All the male or female mice are inoculated on day D0 with a known quantity of viable tumour cells for ascitic tumours or with a known tumour fragment for solid tumours.
(§3) They are then distributed into various groups. Each group, corresponding to the animals treated by the product under test, is made up of 10 mice. The product under test is dissolved in distilled water and it is administered n times (Dx-Dy), n, y, and x varying according to the protocol chosen, at the rate of 0.1 ml of solution per 10 g by weight of mice treated and at specific doses for each protocol.
(§4) The "negative control" group, corresponding to the animals which are not treated by the product, contains 2√N animals, N being equal to or greater than the total number of mice treated by the product in the same experiment.
(§5) the antitumour activity is evaluated, in the case of solid tumours, by considering the reduction in the average tumour volume of the treated animals in comparison with the animals of the "negative control" group, according to the formula: [formula]
(§6) A value for T/C of less than 42% indicates an activity for the product at the studied dose.
(h) Test for colic adenocarcinoma 38, SC/D1 IV. (GERAN et al., Cancer Chemother., 1972, 2, 07-57).
(§7) The tests are carried out with BDF1 hybrid mice inoculated by subcutaneous route with a standardized tumour fragment of 3 mm^3. The compound under test is administered by intravenous route only on day D1.
The number of surviving animals is evaluated on day D38.

leukemia P 388 [2] = assay: Test for leukemia P 388 IP/D1 IV; format: in vivo, CDF1 hybrid mice; conditions: for Number of survivors: day D30; for T/C %: survival time
Procedure: as §1, §2, §3, §4
(§8) Finally, the tests can also be carried out at the same time as the study of a group called "positive control", of ten animals, which is treated by a molecule, known for its antitumour activity and which can vary according to the protocol chosen, in the same conditions as the groups treated by the product under test.
(§9) The antitumour activity is evaluated, in the case of ascitic tumours, by considering the increase in the survival time of the animals treated in comparison to that of the animals in the "negative control" group, according to the formula: [formula]
(§10) Also, a product is considered as toxic at the dose studied when this T/C value is equal to or less than 85%. In addition, a product is also considered as toxic at the dose studied when the weight variation, expressed in grams and calculated by the formula: […]
(§11) The tests are carried out with CDF1 hybrid mice inoculated by intraperitoneal route with 10^6 leukemia cells from the P 388 line. The compound under test is administered for 5 successive days (D1-D5) by intraperitoneal route. The positive control for the test is 5-fluorouracile which is administered in the same conditions. The number of surviving animals is evaluated on day D30.
(f) Test for leukemia P 388 IP/D1 IV (GERAN et al., Cancer Chemother., 1972, 2, 07-57).
The test is carried out according to the same protocol as that described for test (a), the compound under test being administered by intravenous route only on day D1.

[3] = tested on: leukemia tumour line L 1210; assay: In vitro cytotoxic activity on leukemia tumour line L 1210; format: cell-based; conditions: L 1210, 48 hours contact, 37° C.; read-out: I D 50 (concentration which inhibits the proliferation of the cells by 50%)
In short: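 Exponentially growing L 1210 leukemia cells were exposed to increasing compound concentrations at 37 °C under CO2 and counted every 24 h. ID50, the concentration inhibiting proliferation by 50%, was calculated after 48 h contact.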

colic adenocarcinoma 38 [4] = assay: Test for colic adenocarcinoma 38, SC/D2,9 IV; format: in vivo, BDF1 hybrid mice; set-up: Average tumour volume at D32: unit not given beside the values; conditions: D2 and D9; for Number of survivors: day D32; for T/C % at D32: tumour volume
Procedure: as §1, §2, §3, §4, §5, §6, §7
(i) Test for colic adenocarcinoma 38, SC/D2,9 IV (GERAN et al., Cancer Chemother., 1972, 2, 07-57).
This test is carried out according to the protocol described for test (h), the compound under test being administered by intravenous route on day D2 then on day D9.
The number of surviving animals is evaluated on day D32.

leukemia P 388 [5] = assay: Test of leukemia P 388; IP/IP, D1-5; format: in vivo, CDF1 hybrid mice; conditions: D1-D5; for Number of survivors: day D30; for T/C %: survival time
In short: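 CDF1 hybrid mice received 10^6 P 388 cells intraperitoneally, then compound in distilled water by intraperitoneal route daily D1-D5, 10 mice per group, 5-fluorouracil as positive control. Activity judged as T/C survival time versus untreated controls, survivors counted at D30; T/C ≤85% or day 5 minus day 1 weight change ≤ −4 g counted as toxic.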

leukemia P388 = assay: Test for leukemia P388, IP/IP, D1; format: in vivo, CDF1 hybrid mice; conditions: for Number of survivors: day D30; for T/C %: survival time
Procedure: as §1, §2, §3, §4, §8, §9, §10, §11
(b) Test for Leukemia P388, IP/IP, D1 (GERAN et al. Cancer chemother., 1972, 2, 07-57).
The test is carried out according to the preceding protocol, the compound under test being administered only on day D1.

With `CCN(CC)CCCNc1ncc(C)c2c1c1cc(O)ccc1n2C` [Derivative No. 12, 1-(3-diethylaminopropylamino)-4,5-dimethyl-8-hydroxy-5H-pyrido[4,3-b]indole] the “Average tumour volume at D38” value (colic adenocarcinoma 38 [1]) was 3.24, the Number of survivors (colic adenocarcinoma 38 [1]; day D38) was 10/10 and the “T/C % at D38” value (colic adenocarcinoma 38 [1]; tumour volume) was 36%. For the same compound, the “Median day of survival” value (leukemia P 388 [2]; 50 mg/kg IV) was 19.0 days, the “Variation by weight” value (leukemia P 388 [2]; 50 mg/kg IV) was -0.7 g and the Number of survivors (leukemia P 388 [2]; 50 mg/kg IV) was 0/10. For the same compound, the T/C % (leukemia P 388 [2]; 50 mg/kg IV) was 174%, the “Median day of survival” value (leukemia P 388 [2]; 100 mg/kg IV) was 24.3 days and the “Variation by weight” value (leukemia P 388 [2]; 100 mg/kg IV) was -1.6 g. The Number of survivors (leukemia P 388 [2]; 100 mg/kg IV) was 1/10, the T/C % (leukemia P 388 [2]; 100 mg/kg IV) was 223% and the IC50 [3] was 35 nM. For the same compound, the “Average tumour volume at D32” value (colic adenocarcinoma 38 [4]; 50 mg/kg IV) was 1.38, the Number of survivors (colic adenocarcinoma 38 [4]; 50 mg/kg IV) was 10/10 and the “T/C % at D32” value (colic adenocarcinoma 38 [4]; 50 mg/kg IV) was 18%. The “Average tumour volume at D32” value (colic adenocarcinoma 38 [4]; 75 mg/kg IV) was 0.97, the Number of survivors (colic adenocarcinoma 38 [4]; 75 mg/kg IV) was 10/10 and the “T/C % at D32” value (colic adenocarcinoma 38 [4]; 75 mg/kg IV) was 13%. The “Median day of survival” value (leukemia P 388 [5]; 1.25 mg/kg IP) was 16.7 days, the “Variation by weight” value (leukemia P 388 [5]; 1.25 mg/kg IP) was -0.5 g and the Number of survivors (leukemia P 388 [5]; 1.25 mg/kg IP) was 1/10. For the same compound, the T/C % (leukemia P 388 [5]; 1.25 mg/kg IP) was 152%, the “Median day of survival” value (leukemia P 388 [5]; 2.5 mg/kg IP) was 18.0 days and the “Variation by weight” value (leukemia P 388 [5]; 2.5 mg/kg IP) was -1.2 g. For the same compound, the Number of survivors (leukemia P 388 [5]; 2.5 mg/kg IP) was 0/10, the T/C % (leukemia P 388 [5]; 2.5 mg/kg IP) was 164% and the “Median day of survival” value (leukemia P 388 [5]; 5 mg/kg IP) was 19.00 days. The “Variation by weight” value (leukemia P 388 [5]; 5 mg/kg IP) was -1.9 g, the Number of survivors (leukemia P 388 [5]; 5 mg/kg IP) was 2/10 and the T/C % (leukemia P 388 [5]; 5 mg/kg IP) was 173%. For the same compound, the “Median day of survival” value (leukemia P 388 [5]; 10 mg/kg IP) was 19.3 days, the Number of survivors (leukemia P 388 [5]; 10 mg/kg IP) was 0/10 and the T/C % (leukemia P 388 [5]; 10 mg/kg IP) was 176%. For the same compound, the “Median day of survival” value (leukemia P 388 [5]; 20 mg/kg IP) was 9.7 days, the “Variation by weight” value (leukemia P 388 [5]; 20 mg/kg IP) was -5.9 g and the Number of survivors (leukemia P 388 [5]; 20 mg/kg IP) was 0/10. The T/C % (leukemia P 388 [5]; 20 mg/kg IP) was 88%, the “Median day of survival” value (leukemia P388; 5 mg/kg IP) was 15.87 days and the “Variation by weight (g)” value (leukemia P388; 5 mg/kg IP) was “+0.1 g”. The Number of survivors (leukemia P388; 5 mg/kg IP) was 0/10, the T/C % (leukemia P388; 5 mg/kg IP) was 139% and the “Median day of survival” value (leukemia P388; 10 mg/kg IP) was 17.75 days. The “Variation by weight” value (leukemia P388; 10 mg/kg IP) was -0.6 g, the Number of survivors (leukemia P388; 10 mg/kg IP) was 0/10 and the T/C % (leukemia P388; 10 mg/kg IP) was 156%. The “Median day of survival” value (leukemia P388; 20 mg/kg IP) was 20.75 days, the “Variation by weight” value (leukemia P388; 20 mg/kg IP) was -1.2 g and the Number of survivors (leukemia P388; 20 mg/kg IP) was 0/10. For the same compound, the T/C % (leukemia P388; 20 mg/kg IP) was 182%, the “Median day of survival” value (leukemia P388; 40 mg/kg IP) was 23.0 days and the “Variation by weight” value (leukemia P388; 40 mg/kg IP) was -6.2 g. For the same compound, the Number of survivors (leukemia P388; 40 mg/kg IP) was 1/10 and the T/C % (leukemia P388; 40 mg/kg IP) was 202%.
